These results are taken from publication PMC8380212, “^18F-labeled tracers targeting fibroblast activation protein” (EJNMMI Radiopharmacy and Chemistry, 2021).

Data set [1] in a line: Determination of logD values (1-octanol / PBS). In kind it is physicochemical. As to conditions: 1-octanol / phosphate buffered saline, pH 7.4; radiolabeled tracer detected by radioactivity in 1-octanol and phosphate buffered saline. How it is done: All experiments for the determination of logD values were performed in triplicate. For the determination by means of radioactivity, around 5 × 10^6 cpm in ca. 1 µL of radioactive stock solutions (water/acetonitrile 1:1) were added to 100 µL phosphate buffered saline (PBS, pH 7.4) and 100 µL of 1-octanol. The mixture was vortexed for 1 min, followed by 5 min of centrifugation for phase separation. A sample of each phase (10 or 50 µL) was measured for radioactivity per volume (Packard Cobra II Autogamma, GMI Inc., USA). In case of FAPI-72 and -73, the reference compounds [^19F]-FAPI-72 and -73 were dissolved in PBS at a concentration of 1 mg/mL. 50 µL of these solutions were each mixed with 50 µL 1-octanol and processed by vortexing and centrifugation as described above. 1 µL of each phase was analyzed by HPLC and the individual content of compound was determined by peak integration. The area under the peaks of the individual runs was used to calculate the log D value.
Fig. 1 Overview of the synthesized precursors discussed in this study. The corresponding log D values were determined by detection of the radiolabeled tracer in 1-octanol and phosphate buffered saline (pH 7). For values labeled with an asterix, the log D was calculated from the relative content of the non-radioactive reference standards in the 1-octanol and the water phase by HPLC analysis and peak integration TEXT PRINTED IN THE PICTURE: FAPI-42: LOG D: -1.63±0.06 | FAPI-52: LOG D: -1.90±0.02 | FAPI-72: LOG D: 1.20±0.01* | FAPI-73: LOG D: 1.13±0.05* | FAPI-74: LOG D: -2.42±0.03 | FAPI-75: LOG D: -3.36±0.12 | FAPI-76: LOG D: -2.86±0.07

The subject of a further data set is wild type HT1080 cells. Briefly: In vitro binding on wild type HT1080 cells (negative control). In kind it is cell-based. How it is done: (§1) The binding properties of the FAPI derivatives were evaluated using the FAP‐transfected HT‐1080‐FAP and CD26 expressing HEK-CD26 cells. All cells were cultivated in Dulbecco's modified Eagle's medium (DMEM) containing 10% fetal calf serum (FCS) at 37 °C/5% carbon dioxide. Cells were seeded in 6-well plates and cultivated to a final confluence of approximately 80–90% (1.2 to 2.0 × 10^6 cells/well). After washing with FCS free medium, for each well ca. 3 kBq of the radiolabeled compound (10–20 GBq/µmol for [^18F]AlF-labeling) was added to the cells in FCS free medium. On completion of the individual incubation time, cells were washed with PBS and treated with 1.4 mL lysis buffer (0.3 m NaOH, 0.2% SDS) before being transferred to measuring tubes. Competition experiments were performed by co-incubation with the unlabeled precursor for 60 min. Radioactivity was determined in a Wizard Gamma Counter (Perkin Elmer), normalized to 10^6 cells and calculated as percentage of the applied dose (%AD). Each experiment was performed in triplicate.
Table 1 summarizes the uptake and EC50 values of the discussed ^18F-labeled FAPI derivatives using the FAP-transfected cell line HT-1080-FAP. Additionally, the lead candidates FAPI-74 to -76 were tested on HEK-CD26 as well as -74 and -75 on wild type HT1080 cells as negative control. […] For FAPI-74, a plateau was already reached after approximately 10 min with 27.2 ± 0.88%AD/10^6cells. […] The EC50 values were all in the low to sub-nanomolar range. Only a neglectable fraction of FAPIs 74–76 were detected on HEK-CD26 cells (0.18–0.24%) as well as on wildtype HT1080 in case of -74 and 75 (< 0.1%).

The next data set is described as follows: Serum stability assay. In kind it is in vitro ADME, human. The note with it: 37 °C, 10 min to 4 h, radio-HPLC. The method, then: Five MBq of purified [^18F]AlF-FAPI-74 (20 GBq/µmol) were dried under reduced pressure and the residue incubated in 300 µL human serum (Sigma Aldrich Germany) at 37 °C. After different time intervals (10 min to 4 h) 20 µL samples were precipitated with 40 µL acetonitrile. The stability of the labeled peptide was monitored by radio-HPLC of the supernatant. A gradient of 0% to 30% acetonitrile in 10 min was used for enhanced separation performance.

For data set [2], the target named is T1, FAP‐transfected HT‐1080‐FAP cells (Homo sapiens, UniProt Q12884).
T1 construct: expressed in transfected cells; host or cells: HT-1080 cells transfected with FAP (HT-1080-FAP)
T1 sequence (Q12884 1-760): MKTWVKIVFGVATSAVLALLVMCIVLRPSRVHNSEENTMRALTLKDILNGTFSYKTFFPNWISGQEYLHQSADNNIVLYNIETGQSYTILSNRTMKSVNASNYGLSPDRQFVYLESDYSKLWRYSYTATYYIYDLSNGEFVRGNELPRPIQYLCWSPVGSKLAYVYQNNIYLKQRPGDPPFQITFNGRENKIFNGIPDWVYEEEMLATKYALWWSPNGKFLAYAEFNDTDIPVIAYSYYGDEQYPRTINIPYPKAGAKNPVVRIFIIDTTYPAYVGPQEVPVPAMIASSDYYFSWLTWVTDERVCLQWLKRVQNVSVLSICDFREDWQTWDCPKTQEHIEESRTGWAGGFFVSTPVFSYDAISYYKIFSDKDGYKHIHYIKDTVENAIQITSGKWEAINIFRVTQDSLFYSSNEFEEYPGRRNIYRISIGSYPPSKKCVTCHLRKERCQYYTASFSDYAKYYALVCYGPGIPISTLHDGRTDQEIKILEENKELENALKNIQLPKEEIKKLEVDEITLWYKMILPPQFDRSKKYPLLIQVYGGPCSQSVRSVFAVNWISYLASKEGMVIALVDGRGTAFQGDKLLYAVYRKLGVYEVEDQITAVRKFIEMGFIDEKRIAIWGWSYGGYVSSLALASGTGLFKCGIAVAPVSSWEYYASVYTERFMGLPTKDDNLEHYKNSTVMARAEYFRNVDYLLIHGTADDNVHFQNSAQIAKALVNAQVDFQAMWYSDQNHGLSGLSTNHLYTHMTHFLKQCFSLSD
Briefly: In vitro binding/uptake on FAP-transfected HT-1080-FAP cells. Type of data set: cell-based. The note with it: HT1080-FAP cells. The method, then:
as §1

A word on the logD: it is the decadic logarithm of the distribution of all forms, ionised or not, between an organic phase and buffer at a given pH. For the molecule `N#C[C@@H]1CCCN1C(=O)CNC(=O)c1ccnc2ccc(OCCCN3CCN(C(=O)CN4CCN(CC(=O)O)CCN(CC(=O)O)CC4)CC3)cc12` [FAPI-74], in data set [1], the logD was -2.42 ± 0.03. Also, the “uptake WT” value in the data set with wild type HT1080 cells (wild type HT1080 control cells) came to 0.07 ± 0.03 %AD/10^6 cells. In addition, in the data set with wild type HT1080 cells (wildtype HT1080, text), the “fraction detected on wildtype HT1080” value is listed as < 0.1%. In addition, the “stability in human serum” value is “No degradation products were observed” in “Serum stability assay” (listed as 18F-labeled FAPI-74) and “no degradation of the tracer or instability of the [^18F]AlF-NOTA complex” in the data set “Serum stability assay” (listed as [^18F]AlF-FAPI-74). In addition, the “uptake 10 min” value in data set [2] (10 min incubation) came to 27.2 ± 0.88 %AD/10^6 cells. The “uptake 60 min” value in data set [2] (60 min incubation) was 29.7 ± 0.66 %AD/10^6 cells. The “uptake 120 min” value in data set [2] (120 min incubation) was 30.39 ± 2.47 %AD/10^6 cells.
